Experimental data: patent US9802941B2, “Compounds and methods for inhibiting histone demethylases” (Gilead Sciences, Inc., priority 2014, dated 2017)
Where two headings read alike, the source gives them in different places.

Key:
Format in all cases: biochemical
[1] = target: T1, KDM4C (JMJD2C) (Homo sapiens, UniProt Q9H3R0); experiment: Histone lysine demethylase AlphaLISA assay, KDM4C
T1 construct: KDM4C; BRIC, Denmark; 1-349; E. coli; host or cells: E. coli
T1 sequence (Q9H3R0 1-349): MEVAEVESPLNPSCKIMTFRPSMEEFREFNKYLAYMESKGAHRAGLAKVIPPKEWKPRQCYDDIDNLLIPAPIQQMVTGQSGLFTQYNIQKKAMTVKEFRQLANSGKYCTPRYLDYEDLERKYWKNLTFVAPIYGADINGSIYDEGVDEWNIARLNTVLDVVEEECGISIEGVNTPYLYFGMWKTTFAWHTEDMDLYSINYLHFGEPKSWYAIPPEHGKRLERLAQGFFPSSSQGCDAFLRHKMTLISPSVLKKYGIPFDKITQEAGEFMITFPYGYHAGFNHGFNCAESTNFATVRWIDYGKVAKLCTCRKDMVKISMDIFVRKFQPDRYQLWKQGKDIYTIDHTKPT
Protocol: (§1) The compounds of the application, or a pharmaceutically acceptable salt, or solvate, or prodrug thereof, are tested in an in vitro AlphaLISA assay. Enzymes are dissolved in enzyme buffer and incubated before they are added to DMSO solutions of compounds of the application, or a pharmaceutically acceptable salt, or solvate, or prodrug thereof, in enzyme buffer. The reaction mixture is then incubated for an additional period of time before substrate solution is added and then the resulting mixture again incubated. Acceptor beads and suspended Epigenetic Buffer from stock are added and the suspension is again incubated before a suspension of streptavidin donor beads in Epigenetic Buffer is added. After an additional period of incubation, the plates are read.
(§2) The ability of compounds of the application to inhibit the histone lysine demethylase activity in vitro of different enzymes was determined.
(§3) The reaction mixture was incubated for another 10 minutes before 5 μL of substrate solution was added and the resulting mixture was then incubated at room temperature. […] After incubation at room temperature in the dark, the plates were read.
(§4) Enzyme Buffer: 50 mM Hepes (pH 7.4-8.0), 0.003-0.01% Tween-20, 0.1% BSA; 5 μM (NH4)2Fe(SO4)2.

[2] = target: T2, KDM2B (FBXL10) (Homo sapiens, UniProt Q8NHM5); experiment: Histone lysine demethylase AlphaLISA assay, KDM2B
T2 construct: KDM2B; BPS,; 1-650; Bac; purchased BPS Bioscience, US; host or cells: baculovirus system
T2 sequence (Q8NHM5 1-650): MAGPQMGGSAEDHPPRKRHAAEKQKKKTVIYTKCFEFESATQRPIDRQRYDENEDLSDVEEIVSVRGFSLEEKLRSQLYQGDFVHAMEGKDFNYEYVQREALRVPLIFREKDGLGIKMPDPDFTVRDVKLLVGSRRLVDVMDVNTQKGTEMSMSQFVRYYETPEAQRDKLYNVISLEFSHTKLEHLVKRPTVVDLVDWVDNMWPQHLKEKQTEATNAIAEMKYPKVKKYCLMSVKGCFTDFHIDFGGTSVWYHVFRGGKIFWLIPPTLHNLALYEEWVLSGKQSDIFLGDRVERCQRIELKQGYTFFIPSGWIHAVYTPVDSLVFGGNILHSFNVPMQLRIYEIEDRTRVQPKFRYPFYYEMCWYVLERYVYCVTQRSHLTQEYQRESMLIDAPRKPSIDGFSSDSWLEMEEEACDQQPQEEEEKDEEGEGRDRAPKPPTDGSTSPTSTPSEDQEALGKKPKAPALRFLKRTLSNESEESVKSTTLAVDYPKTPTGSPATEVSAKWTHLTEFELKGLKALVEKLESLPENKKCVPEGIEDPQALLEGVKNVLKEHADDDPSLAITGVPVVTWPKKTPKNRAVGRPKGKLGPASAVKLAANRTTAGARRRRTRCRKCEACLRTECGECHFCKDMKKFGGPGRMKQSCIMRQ
Protocol: as §1, §2, §3, §4

[3] = target: T3, PHF8 (KDM7) (Homo sapiens, UniProt Q9UPP1); experiment: Histone lysine demethylase AlphaLISA assay, PHF8
T3 construct: KDM7 (PHF8); BRIC; 1-1322; Bac
T3 sequence (Q9UPP1 37-440 limits assumed): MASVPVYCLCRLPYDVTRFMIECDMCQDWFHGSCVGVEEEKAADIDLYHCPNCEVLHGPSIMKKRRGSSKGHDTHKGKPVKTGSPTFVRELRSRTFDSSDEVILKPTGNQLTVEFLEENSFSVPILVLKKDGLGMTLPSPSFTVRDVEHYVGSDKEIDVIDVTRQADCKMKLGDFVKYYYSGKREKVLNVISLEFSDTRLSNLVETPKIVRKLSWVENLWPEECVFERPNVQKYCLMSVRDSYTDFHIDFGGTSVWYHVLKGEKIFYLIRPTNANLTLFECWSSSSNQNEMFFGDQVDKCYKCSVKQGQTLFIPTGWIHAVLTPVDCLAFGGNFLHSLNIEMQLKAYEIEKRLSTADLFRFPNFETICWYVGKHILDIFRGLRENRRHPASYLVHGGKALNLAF
Protocol: as §1, §2, §3, §4

[4] = target: T4, KDM5B (PLU-1) (Homo sapiens, UniProt Q9UGL1); experiment: Histone lysine demethylase AlphaLISA assay, KDM5B
T4 construct: BRIC; 1-809; E. coli; host or cells: E. coli
T4 sequence (Q9UGL1 1-809): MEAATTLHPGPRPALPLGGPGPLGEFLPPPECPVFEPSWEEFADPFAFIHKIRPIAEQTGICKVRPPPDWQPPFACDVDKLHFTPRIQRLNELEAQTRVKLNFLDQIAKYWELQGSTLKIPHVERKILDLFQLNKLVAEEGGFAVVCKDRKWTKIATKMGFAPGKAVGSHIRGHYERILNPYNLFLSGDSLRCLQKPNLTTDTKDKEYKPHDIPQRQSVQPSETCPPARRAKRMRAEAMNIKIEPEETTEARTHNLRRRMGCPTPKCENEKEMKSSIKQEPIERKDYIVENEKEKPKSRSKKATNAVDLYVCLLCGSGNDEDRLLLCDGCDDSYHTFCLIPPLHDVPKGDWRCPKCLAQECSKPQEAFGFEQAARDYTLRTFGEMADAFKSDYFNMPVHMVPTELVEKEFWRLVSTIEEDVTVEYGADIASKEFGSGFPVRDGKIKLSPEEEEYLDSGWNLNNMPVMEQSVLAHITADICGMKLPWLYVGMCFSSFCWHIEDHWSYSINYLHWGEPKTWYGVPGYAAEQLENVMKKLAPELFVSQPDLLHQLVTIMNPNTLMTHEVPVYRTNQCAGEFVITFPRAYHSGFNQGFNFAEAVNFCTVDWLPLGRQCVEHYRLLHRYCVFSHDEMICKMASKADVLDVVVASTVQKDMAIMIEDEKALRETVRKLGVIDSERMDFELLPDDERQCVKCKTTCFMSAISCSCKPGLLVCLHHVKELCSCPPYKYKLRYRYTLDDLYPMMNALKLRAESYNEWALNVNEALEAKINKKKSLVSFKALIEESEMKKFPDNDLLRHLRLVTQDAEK
Protocol: as §1, §2, §3, §4

[5] = AlphaLISA assay, read-out: HDME Inhibition KDM4C (IC50)
[6] = AlphaLISA, in vitro, read-out: HDME Inhibition KDM4C
[7] = AlphaLISA, in vitro, read-out: HDME Inhibition KDM2B
[8] = AlphaLISA, in vitro, read-out: HDME Inhibition PHF8
[9] = AlphaLISA assay, read-out: HDME Inhibition KDM5B (IC50)
[10] = AlphaLISA, in vitro, read-out: HDME Inhibition KDM5B
[11] = AlphaLISA assay, read-out: HDME Inhibition PHF8 (IC50)
[12] = AlphaLISA assay, read-out: HDME Inhibition KDM2B (IC50)

Row | SMILES | IC50 [1, 5] [µM] | IC50 [1, 6] [µM] | IC50 [2, 7] [µM] | IC50 [3, 8] [µM] | IC50 [4] [µM] | IC50 [4, 9] [µM] | IC50 [4, 10] [µM] | IC50 [3, 11] [µM] | IC50 [2, 12] [µM]
1 | C=CCn1ccnc1CNCc1cc(C(=O)O)cc(C)n1 [Compound 75, 2-methyl-6-[({[1-(prop-2-en-1-yl)-1H-imidazol-2-yl]methyl}amino)methyl]pyridine-4-carboxylic acid] | > 10 | > 10 | 0.587 | 1.27 | 0.431 | – | – | – | –
2 | CCN(CCN(C)C)C(=O)CNCc1cc(C(=O)O)cc(CO)n1 [Compound 102, 2-{[({[2-(dimethylamino)ethyl](ethyl)carbamoyl}methyl)amino]methyl}-6-(hydroxymethyl)pyridine-4-carboxylic acid] | – | 7.05 | 0.24 | > 10 | – | – | 0.02 | > 10 | –
3 | Cc1cc(C(=O)O)cc(CNCc2nncn2C/C=C/c2ccccc2)n1 [Compound 67, 2-methyl-6-{[({4-[(2E)-3-phenylprop-2-en-1-yl]-4H-1,2,4-triazol-3-yl}methyl)amino]methyl}pyridine-4-carboxylic acid] | > 10 | > 10 | 0.715 | 0.791 | – | > 10 | > 10 | – | –
4 | Cc1cc(C(=O)O)cc(CNCc2ncc(C(C)O)n2Cc2ccc(F)cc2)n1 (stereo not shown) [Compound 63, 2-{[({1-[(4-fluorophenyl)methyl]-5-(1-hydroxyethyl)-1H-imidazol-2-yl}methyl)amino]methyl}-6-methylpyridine-4-carboxylic acid] | > 10 | > 10 | 0.333 | 1.4 | – | > 10 | > 10 | – | –
5 | Cc1cc(C(=O)O)cc(CNCc2nocc2COc2ccc(F)cc2)n1 [Compound 76, 2-[({[4-(4-fluorophenoxymethyl)-1,2-oxazol-3-yl]methyl}amino)methyl]-6-methylpyridine-4-carboxylic acid] | – | – | 4.73 | > 10 | – | > 10 | > 10 | > 10 | –
6 | Cc1cc(C(=O)O)cc(CNCc2nnc(C)n2-c2cccc(Cl)c2)n1 [Compound 58, 2-[({[4-(3-chlorophenyl)-5-methyl-4H-1,2,4-triazol-3-yl]methyl}amino)methyl]-6-methylpyridine-4-carboxylic acid] | – | – | > 10 | > 10 | – | > 10 | > 10 | > 10 | > 10
7 | Cc1cc(C(=O)O)cc(CNCCc2ncccc2C2=CCCC2)n1 [Compound 59, 2-[({2-[3-(cyclopent-1-en-1-yl)pyridin-2-yl]ethyl}amino)methyl]-6-methylpyridine-4-carboxylic acid] | – | – | 2.75 | > 10 | – | – | – | > 10 | –
8 | COc1ccc(CC(C)C)c(CNCc2cc(C(=O)O)cc(C)n2)n1 [Compound 74, 2-[({[6-methoxy-3-(2-methylpropyl)pyridin-2-yl]methyl}amino)methyl]-6-methylpyridine-4-carboxylic acid] | – | – | 1.86 | 3.81 | – | > 10 | > 10 | – | –

The remaining lines, values ahead:

Row | IC50 [1, 5] [µM] | IC50 [1, 6] [µM] | IC50 [2, 7] [µM] | IC50 [3, 8] [µM] | IC50 [4] [µM] | IC50 [4, 9] [µM] | IC50 [4, 10] [µM] | IC50 [3, 11] [µM] | IC50 [2, 12] [µM] | SMILES
9 | > 10 | > 10 | 1.7 | 2.3 | – | > 10 | > 10 | – | – | Cc1cc(OCc2ccccc2)c(CCNCc2cc(C(=O)O)cc(CO)n2)nn1 [Compound 87, 2-[({2-[4-(benzyloxy)-6-methylpyridazin-3-yl]ethyl}amino)methyl]-6-(hydroxymethyl)pyridine-4-carboxylic acid]
10 | > 10 | > 10 | > 10 | > 10 | 8.41 | – | – | > 10 | > 10 | O=C(O)c1cc(CO)nc(CNCc2nnc(-c3ccccc3)n2CCCc2ccccc2)c1 [Compound 99, 2-(hydroxymethyl)-6-[({[5-phenyl-4-(3-phenylpropyl)-4H-1,2,4-triazol-3-yl]methyl}amino)methyl]pyridine-4-carboxylic acid]
11 | > 10 | > 10 | 2.94 | 6.97 | – | > 10 | > 10 | – | – | CCc1nnc(CNCc2cc(C(=O)O)cc(C)n2)n1CCCc1ccccc1 [Compound 90, 2-[({[5-ethyl-4-(3-phenylpropyl)-4H-1,2,4-triazol-3-yl]methyl}amino)methyl]-6-methylpyridine-4-carboxylic acid]
12 | > 10 | > 10 | 0.053 | 1.23 | – | > 10 | > 10 | – | – | COc1ccc(OCc2ccccc2)c(CNCc2cc(C(=O)O)cc(C)n2)n1 [Compound 92, 2-[({[3-(benzyloxy)-6-methoxypyridin-2-yl]methyl}amino)methyl]-6-methylpyridine-4-carboxylic acid]
13 | > 10 | > 10 | 0.482 | 0.883 | – | > 10 | > 10 | – | – | Cc1cc(C(=O)O)cc(CNCc2nncn2CCCc2ccccc2)n1 [Compound 56]
14 | – | – | 0.145 | 0.4 | – | > 10 | > 10 | – | – | COc1ccc(OCCc2ccccc2)c(CNCc2cc(C(=O)O)cc(C)n2)n1 [Compound 104, 2-[({[6-methoxy-3-(2-phenylethoxy)pyridin-2-yl]methyl}amino)methyl]-6-methylpyridine-4-carboxylic acid]
15 | – | – | 3.1 | 2.77 | – | > 10 | > 10 | – | – | COC(=O)c1cn(Cc2ccc(F)cc2)c(CNCc2cc(C(=O)O)cc(CO)n2)n1 [Compound 106, 2-{[({1-[(4-fluorophenyl)methyl]-4-(methoxycarbonyl)-1H-imidazol-2-yl}methyl)amino]methyl}-6-(hydroxymethyl)pyridine-4-carboxylic acid]
